Data: patent US4737504A, “5-fluoro-and 8-fluoro-trimetoquinol compounds and the processes for their preparation” (priority 1986, dated 1988)
Read-outs that look alike come from different tables or passages of the source.

Legend:
[1] = tested on: human platelets (U46619-induced serotonin secretion); test: inhibition of U46619-induced serotonin secretion in presence of aspirin, human platelet-rich plasma; type: cell-based; conditions: U46619 0.5-1.5 μM, aspirin 1 mM
Method: The antiaggregatory and antisecretory activity on human platelets was determined by evaluating the in vitro aggregation and [^14 C]serotonin secretion in human platelet preparations. Blood was taken by venipuncture from normal human volunteers who were reported to be free of medication for at least 10 days before blood drawing. Venous blood samples were mixed with acid-citrate dextrose solution (9:1) and centrifuged at 120×g for 15 minutes at room temperature to obtain platelet-rich plasma, PRP, (Huzoor-Akbar et al., Biochem. Pharmacol., 30: 2013-2020, 1981). The PRP was transferred to polypropylene tubes and stored under an atmosphere of 8% CO2. The remaining blood was centrifuged at 1000×g for 10 minutes to obtain platelet-poor plasma. […] Platelet counts varied between 280,000 to 320,000 per cmm or were adjusted to 300,000 per cmm for the aggregation and secretion experiments. All studies were conducted within 2 hours after PRP recovery.
For aggregation studies, 0.5 ml of PRP was incubated with drug or vehicle (1-5 μl) for 1 minute at 37° C. before the initiation of aggregation with inducers. […] In all experiments, the minimum concentration of inducer (adenosine diphosphate ADP; epinephrine, E; 15S-hydroxy-11α,9α-epoxymethanoprosta-5Z,13E-dienoic acid, U46619; collagen; and arachidonic acid, AA) which caused maximal irreversible aggregation within each PRP preparation was used. Aggregation was monitored for 4 to 6 minutes after the addition of an inducer and data were presented as a percentage inhibition of either slope or maximal light transmittance changes in the presence of varying drug concentrations.
Secretion data were calculated as the net increase of serotonin released into the supernatant by each inducer and expressed as a percentage of the total radioactivity in platelets Mayo et al., Biochem. Pharmacol., 30: 2237-2241, 1981. The effect of compounds on serotonin release was expressed as the percentage of inhibition of the maximum release by each inducer and plotted against the log molar concentrations of each agent.

[2] = target: T1, U46619-induced contractions of rat thoracic aorta (Rattus norvegicus, UniProt P34978); test: antagonism of U46619-induced contractions of rat thoracic aorta; type: cell-based, rat (male Sprague-Dawley); conditions: for Kb: against U46619, read-out: pKB ± SEM (converted); for ΔpD2 of U46619: pD2 (control) - pD2 (treatment); for inhibitory potency on U46619-induced contractions greater than trimetoquinol: relative to trimetoquinol 1
T1 construct: A 2-3 cm segment of thoracic aorta was excised; tissue Harlan Industries, Inc., Cumberland, IN (animals); host or cells: rat thoracic aorta, spirally cut strips
T1 sequence (P34978 1-341): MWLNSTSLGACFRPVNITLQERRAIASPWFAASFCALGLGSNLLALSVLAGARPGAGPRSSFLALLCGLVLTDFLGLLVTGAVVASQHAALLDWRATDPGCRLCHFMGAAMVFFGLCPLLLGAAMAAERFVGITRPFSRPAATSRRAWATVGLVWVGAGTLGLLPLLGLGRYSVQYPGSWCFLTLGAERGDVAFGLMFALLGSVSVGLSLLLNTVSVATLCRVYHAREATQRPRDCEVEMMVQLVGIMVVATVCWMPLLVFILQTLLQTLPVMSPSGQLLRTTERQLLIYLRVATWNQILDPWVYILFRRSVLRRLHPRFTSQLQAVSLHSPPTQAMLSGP
Method: The vasoconstrictive activity of U46619 (a stable thromboxane A2 agonist) on thoracic aorta tissue was determined as follows: Male Sprague-Dawley rats (Harlan Industries, Inc., Cumberland, IN) weighing between 250 and 350 gm were stunned and killed by cervical dislocation. A 2-3 cm segment of thoracic aorta was excised, cleaned of any adhering fat and connecting tissue, spirally cut into 2 matched strips, Constantine, supra. (2.0×0.3 cm). Strips were mounted in 10 ml tissue baths filled with the physiological salt solution in which 3×10^-6 M indomethaecin was present. A tension of 1 gm was applied to the strips. Responses of the tissues to drugs were monitored via Grass FT-03 isometric force transducers connected to a Grass Model 7C polygraph (Grass Instruments Co., Quincy, MA).
Some experiments were done in the absence of indomethacin. Concentration-dependent responses to U46619 were constructed in each preparation as described by Van Rossum, supra.
Effective concentration-50 (EC50) values of the agonists were determined graphically from individual plots of percent response versus log concentration. The potency of each agonist was expressed as a pD2 value where pD2 is equal to the negative logarithm of the experimentally determined EC50 value.
Antagonists were quantitated by calculating their pKB or pA2 values according to the methods of Furchgott, Ann. N.Y. Acad. Sci., 139: 553-570 (1967) and Arunlakshana et al., Br. J. Pharmacol., 14: 48-58 (1959). The pKB value is equivalent to the -log of [I]/(CR-1), where pKB is the negative logarithm of the apparent dissociation constant of the antagonist (KB), [I] is the concentration of the antagonist, and CR is the concentration ratio of the agonist EC50 in the presence of antagonist to the agonist EC50 in the absence of antagonist. To determine significant differences between pD2, pKB or pA2 values, a 5% level of significance was used. Arunlakshana plots were analyzed by computer according to the method of Tallarida et al., Manual of Pharmacological Calculations With Computer Programs, 29-31, (1981).

[3] = read-out: IC50 serotonin secretion
[4] = read-out: pIC50 serotonin secretion (converted)

SMILES	IC50 [1, 3] [nM]	IC50 [1, 4] [nM]	Kb ([2]; analog 1 × 10^-4 M) [nM]	Kb ([2]; analog 3 × 10^-5 M) [nM]	Kb ([2]; analog 3 × 10^-6 M) [nM]	pD2 of U46619 in presence of analog ([2]; analog 1 × 10^-4 M)	pD2 of U46619 in presence of analog ([2]; analog 3 × 10^-5 M)	pD2 of U46619 in presence of analog ([2]; analog 3 × 10^-6 M)	ΔpD2 of U46619 ([2]; analog 1 × 10^-4 M)	ΔpD2 of U46619 ([2]; analog 3 × 10^-5 M)	ΔpD2 of U46619 ([2]; analog 3 × 10^-6 M)	inhibitory potency on U46619-induced contractions greater than trimetoquinol [2]	Kb ([2]; analog 1 × 10^-5 M) [nM]	pD2 of U46619 in presence of analog ([2]; analog 1 × 10^-5 M)	ΔpD2 of U46619 ([2]; analog 1 × 10^-5 M)
COc1cc(CC2NCCc3c2cc(O)c(O)c3F)cc(OC)c1OC (stereo not drawn) [Compound 5-F-TMQ, 5-fluoro-trimetoquinol]	6900	6920	1740	3160	1510	6.40 ± 0.16	7.14 ± 0.08	7.69 ± 0.08	1.77 ± 0.16	1.02 ± 0.08	0.48 ± 0.07	about 2 fold			
COc1cc(CC2NCCc3cc(O)c(O)c(F)c32)cc(OC)c1OC (stereo not drawn) [Compound 8-F-TMQ, 8-fluoro-trimetoquinol]	4400	4370		372	380		6.25 ± 0.14	7.20 ± 0.12		1.92 ± 0.14	0.96 ± 0.19	~10 fold	251	6.81 ± 0.12	1.36 ± 0.12
